Data: US6544990B2, “Substituted quinolinecarboxamides as antiviral agents” (Pharmacia & Upjohn Company, priority 2001, dated 2003)

Tests used:
HCMV polymerase = target: T1, HCMV polymerase (Human cytomegalovirus, UniProt P08546); experiment: HCMV polymerase scintillation proximity assay (SPA); type: biochemical; conditions: CMV polymerase
T1 construct: made in house; host or cells: recombinant baculovirus-infected SF-9 cells
Method: The HCMV polymerase assay is performed using a scintillation proximity assay (SPA) as described in several references, such as N. D. Cook, et al., Pharmaceutical Manufacturing International, pages 49-53 (1992); K. Takeuchi, Laboratory Practice, September issue (1992); U.S. Pat. No. 4,568,649 (1986); which are incorporated by reference herein. Reactions are performed in 96-well plates. The assay is conducted in 100 μl volume with 5.4 mM HEPES (pH 7.5), 11.7 mM KCl, 4.5 mM MgCl2, 0.36 mg/ml BSA, and 90 nM 3H-dTTP. Assays are run with and without CHAPS, (3-[(3-Cholamidopropyl)-dimethylammonio]-1-propane-sulfonate) at a final concentration of 2 mM. HCMV polymerase is diluted in enzyme dilution buffer containing 50% glycerol, 250 mM NaCl, 10 mM HEPES (pH 7.5), 100 μg/ml BSA, and 0.01% sodium azide. The HCMV polymerase, which is expressed in recombinant baculovirus-infected SF-9 cells and purified according to literature procedures, is added at 10% (or 10 μl ) of the final reaction volume, i.e., 100 μl. Compounds are diluted in 50% DMSO and 10 μl are added to each well. Control wells contain an equivalent concentration of DMSO. Unless noted otherwise, reactions are initiated via the addition of 6 nM biotinylated poly(dA)-oligo(dT) template/primer to reaction mixtures containing the enzyme, substrate, and compounds of interest. Plates are incubated in a 25 C or 37 C H20 bath and terminated via the addition of 40 μl/reaction of 0.5 M EDTA (pH 8) per well. Reactions are terminated within the time-frame during which substrate incorporation is linear and varied depending upon the enzyme and conditions used, i.e., 30 min. for HCMV polymerase. Ten μl of streptavidin-SPA beads (20 mg/mil in PBS/10% glycerol) are added following termination of the reaction. Plates are incubated 10 min. at 37 C, then equilibrated to room temperature, and counted on a Packard Topcount. Linear regressions are performed and IC50's are calculated using computer software.
A modified version of the above HCMV polymerase assay is performed as described above, but with the following changes: Compounds are diluted in 100% DMSO until final dilution into assay buffer. In the previous assay, compounds are diluted in 50% DMSO. 4.5 mM dithiotherotol (DTT) is added to the polymerase buffer.

VZV polymerase = VZV polymerase (Varicella-zoster virus, UniProt P09252); experiment: Polymerase scintillation proximity assay (SPA), VZV; type: biochemical
HSV polymerase = HSV polymerase (Human herpesvirus 1, UniProt P04293); experiment: Polymerase scintillation proximity assay (SPA), HSV; type: biochemical
Sequence of HSV polymerase (P04293 whole entry): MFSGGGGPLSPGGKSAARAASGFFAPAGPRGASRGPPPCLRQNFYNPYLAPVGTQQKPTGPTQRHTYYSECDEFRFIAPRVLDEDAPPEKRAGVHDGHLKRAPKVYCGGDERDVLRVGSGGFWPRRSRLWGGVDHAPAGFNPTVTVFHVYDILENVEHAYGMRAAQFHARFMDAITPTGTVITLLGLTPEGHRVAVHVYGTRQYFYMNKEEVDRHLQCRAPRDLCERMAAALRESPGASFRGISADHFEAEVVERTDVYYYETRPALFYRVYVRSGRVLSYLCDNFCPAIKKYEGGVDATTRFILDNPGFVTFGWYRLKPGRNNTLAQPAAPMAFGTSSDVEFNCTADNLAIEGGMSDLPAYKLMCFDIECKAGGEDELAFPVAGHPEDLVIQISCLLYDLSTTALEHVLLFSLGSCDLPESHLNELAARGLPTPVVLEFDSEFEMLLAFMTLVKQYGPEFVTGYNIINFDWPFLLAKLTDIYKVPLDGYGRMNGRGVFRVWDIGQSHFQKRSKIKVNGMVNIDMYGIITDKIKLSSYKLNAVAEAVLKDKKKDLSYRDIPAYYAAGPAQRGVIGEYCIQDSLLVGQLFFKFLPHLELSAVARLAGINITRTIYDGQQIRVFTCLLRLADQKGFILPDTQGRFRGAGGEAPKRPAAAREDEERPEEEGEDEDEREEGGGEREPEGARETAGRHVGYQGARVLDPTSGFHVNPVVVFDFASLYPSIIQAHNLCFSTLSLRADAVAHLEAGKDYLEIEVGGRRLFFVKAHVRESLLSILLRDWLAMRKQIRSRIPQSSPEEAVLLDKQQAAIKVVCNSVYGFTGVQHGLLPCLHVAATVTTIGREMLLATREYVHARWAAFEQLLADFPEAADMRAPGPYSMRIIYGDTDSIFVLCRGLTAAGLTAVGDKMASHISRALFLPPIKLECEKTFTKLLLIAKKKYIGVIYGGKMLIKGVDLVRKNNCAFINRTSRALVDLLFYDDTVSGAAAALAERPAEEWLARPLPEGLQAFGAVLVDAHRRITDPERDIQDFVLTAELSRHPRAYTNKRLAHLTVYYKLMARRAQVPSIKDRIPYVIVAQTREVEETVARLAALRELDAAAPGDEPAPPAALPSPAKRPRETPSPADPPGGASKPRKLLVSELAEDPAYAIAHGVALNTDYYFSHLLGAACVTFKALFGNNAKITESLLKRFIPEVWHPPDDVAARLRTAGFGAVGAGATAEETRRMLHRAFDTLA

T1 sequence (P08546 whole entry): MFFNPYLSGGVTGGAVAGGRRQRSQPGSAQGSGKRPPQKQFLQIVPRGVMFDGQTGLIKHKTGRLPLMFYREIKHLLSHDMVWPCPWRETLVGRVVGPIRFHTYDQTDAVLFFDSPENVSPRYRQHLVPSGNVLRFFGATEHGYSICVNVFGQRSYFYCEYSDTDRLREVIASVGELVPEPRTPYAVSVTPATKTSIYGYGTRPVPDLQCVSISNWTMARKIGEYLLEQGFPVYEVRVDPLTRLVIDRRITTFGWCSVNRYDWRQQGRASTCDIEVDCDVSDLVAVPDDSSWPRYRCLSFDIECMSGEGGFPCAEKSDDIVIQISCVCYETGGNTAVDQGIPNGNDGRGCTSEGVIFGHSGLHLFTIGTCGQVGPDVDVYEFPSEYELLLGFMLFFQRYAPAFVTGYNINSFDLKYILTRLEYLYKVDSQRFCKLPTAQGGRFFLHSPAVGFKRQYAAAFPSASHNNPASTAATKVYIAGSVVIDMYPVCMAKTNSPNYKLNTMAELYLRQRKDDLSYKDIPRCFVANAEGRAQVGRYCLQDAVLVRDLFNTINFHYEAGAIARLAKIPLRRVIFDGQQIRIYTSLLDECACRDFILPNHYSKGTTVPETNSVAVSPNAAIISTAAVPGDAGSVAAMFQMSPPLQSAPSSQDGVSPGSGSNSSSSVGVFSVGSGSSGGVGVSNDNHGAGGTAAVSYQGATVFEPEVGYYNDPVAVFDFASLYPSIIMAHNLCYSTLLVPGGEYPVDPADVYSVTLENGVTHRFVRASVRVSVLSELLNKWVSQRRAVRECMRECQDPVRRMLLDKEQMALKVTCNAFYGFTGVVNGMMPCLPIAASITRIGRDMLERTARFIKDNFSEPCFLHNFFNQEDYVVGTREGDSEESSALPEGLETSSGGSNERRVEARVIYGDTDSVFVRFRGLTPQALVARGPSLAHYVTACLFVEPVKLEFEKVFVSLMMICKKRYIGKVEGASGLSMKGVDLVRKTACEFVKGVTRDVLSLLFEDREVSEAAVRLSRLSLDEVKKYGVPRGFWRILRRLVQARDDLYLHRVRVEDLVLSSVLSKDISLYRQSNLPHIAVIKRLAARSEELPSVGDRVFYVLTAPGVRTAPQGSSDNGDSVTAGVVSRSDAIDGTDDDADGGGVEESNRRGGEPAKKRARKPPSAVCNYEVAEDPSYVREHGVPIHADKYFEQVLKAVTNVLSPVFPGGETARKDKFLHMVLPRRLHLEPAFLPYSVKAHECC
Sequence of VZV polymerase (P09252 whole entry): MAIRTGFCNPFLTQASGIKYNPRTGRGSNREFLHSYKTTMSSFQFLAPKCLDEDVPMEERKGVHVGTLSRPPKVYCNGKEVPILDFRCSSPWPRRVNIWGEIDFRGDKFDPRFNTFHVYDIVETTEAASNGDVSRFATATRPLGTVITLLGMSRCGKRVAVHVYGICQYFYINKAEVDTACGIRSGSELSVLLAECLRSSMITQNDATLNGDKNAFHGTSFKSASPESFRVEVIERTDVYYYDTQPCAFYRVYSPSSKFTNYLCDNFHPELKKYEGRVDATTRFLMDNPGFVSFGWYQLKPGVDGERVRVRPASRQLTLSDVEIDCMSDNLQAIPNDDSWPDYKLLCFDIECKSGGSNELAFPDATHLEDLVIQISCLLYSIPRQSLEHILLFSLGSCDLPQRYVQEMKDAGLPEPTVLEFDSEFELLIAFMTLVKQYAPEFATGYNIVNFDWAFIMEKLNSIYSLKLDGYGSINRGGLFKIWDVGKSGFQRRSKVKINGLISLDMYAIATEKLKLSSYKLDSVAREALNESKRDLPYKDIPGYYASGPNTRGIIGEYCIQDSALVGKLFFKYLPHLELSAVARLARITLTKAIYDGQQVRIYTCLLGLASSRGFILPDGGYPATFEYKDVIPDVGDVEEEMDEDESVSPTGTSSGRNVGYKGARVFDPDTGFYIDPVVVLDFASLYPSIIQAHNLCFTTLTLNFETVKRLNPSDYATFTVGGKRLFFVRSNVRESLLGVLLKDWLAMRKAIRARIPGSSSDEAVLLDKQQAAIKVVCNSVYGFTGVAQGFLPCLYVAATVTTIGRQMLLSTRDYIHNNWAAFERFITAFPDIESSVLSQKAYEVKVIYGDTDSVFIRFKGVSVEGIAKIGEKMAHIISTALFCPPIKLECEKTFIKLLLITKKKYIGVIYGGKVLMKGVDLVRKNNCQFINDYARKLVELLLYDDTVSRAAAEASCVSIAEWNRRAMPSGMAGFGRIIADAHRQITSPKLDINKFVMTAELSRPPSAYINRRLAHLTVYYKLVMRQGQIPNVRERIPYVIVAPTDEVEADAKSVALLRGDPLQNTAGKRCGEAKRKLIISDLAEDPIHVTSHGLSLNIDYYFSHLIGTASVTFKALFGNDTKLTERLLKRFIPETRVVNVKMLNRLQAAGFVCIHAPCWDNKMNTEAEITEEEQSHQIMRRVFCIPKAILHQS

SMILES | IC50 (HCMV polymerase) | IC50 (VZV polymerase) | IC50 (HSV polymerase) | melting point
C[C@H](O)C#Cc1cc(CN2CCOCC2)cc2c(=O)c(C(=O)NCc3ccc(Cl)cc3)cn(C)c12 [Example 7, N-(4-chlorobenzyl)-8-[(3S)-3-hydroxy-1-butynyl]-1-methyl-6-(4-morpholinylmethyl)-4-oxo-1,4-dihydro-3-quinolinecarboxamide] | 0.76 µM | 0.18 µM | 0.45 µM | 158 to 161 °C
C[C@@H](O)C#Cc1cc(CN2CCOCC2)cc2c(=O)c(C(=O)NCc3ccc(Cl)cc3)cn(C)c12 [Example 8, N-(4-chlorobenzyl)-8-[(3R)-3-hydroxy-1-butynyl]-1-methyl-6-(4-morpholinylmethyl)-4-oxo-1,4-dihydro-3-quinolinecarboxamide] | 0.87 µM | 0.48 µM | 1 µM | 147 to 150 °C
Cn1cc(C(=O)NCc2ccc(Cl)cc2)c(=O)c2cc(CN3CCOCC3)cc(C#CCCCO)c21 [Example 10, N-(4-chlorobenzyl)-8-(5-hydroxy-1-pentynyl)-1-methyl-6-(4-morpholinylmethyl)-4-oxo-1,4-dihydro-3-quinolinecarboxamide] | 0.48 µM | 0.16 µM | 0.41 µM | 179 to 182 °C
Cn1cc(C(=O)NCc2ccc(Cl)cc2)c(=O)c2cc(CN3CCOCC3)cc(C#CCN3CCS(=O)(=O)CC3)c21 [Example 11, N-(4-chlorobenzyl)-8-[3-(1,1-dioxido-4-thiomorpholinyl)-1-propynyl]-1-methyl-6-(4-morpholinylmethyl)-4-oxo-1,4-dihydro-3-quinolinecarboxamide] | 0.36 µM | 0.18 µM | 0.28 µM | 220 to 222 °C
Cn1cc(C(=O)NCc2ccc(Cl)cc2)c(=O)c2cc(CN3CCOCC3)cc(C#CCn3cnc(Cl)c3Cl)c21 [Example 13, N-(4-chlorobenzyl)-8-[3-(4,5-dichloro-1H-imidazol-1-yl)prop-1-ynyl]-1-methyl-6-(morpholin-4-ylmethyl)-4-oxo-1,4-dihydroquinoline-3-carboxamide] | 0.5 µM | 0.25 µM | 0.49 µM | 178 to 181 °C
Cn1cc(C(=O)NCc2ccc(Cl)cc2)c(=O)c2cc(CN3CCOCC3)cc(C#Cc3ccccn3)c21 [Example 15, N-(4-chlorobenzyl)-1-methyl-6-(morpholin-4-ylmethyl)-4-oxo-8-(pyridin-2-ylethynyl)-1,4-dihydroquinoline-3-carboxamide] | 0.32 µM | 0.14 µM | 0.26 µM | 234 to 236 °C
Cn1cc(C(=O)NCc2ccc(Cl)cc2)c(=O)c2cc(CN3CCOCC3)cc(C#Cc3cccnc3)c21 [Example 16, N-(4-chlorobenzyl)-1-methyl-6-(morpholin-4-ylmethyl)-4-oxo-8-(pyridin-3-ylethynyl)-1,4-dihydroquinoline-3-carboxamide] | 0.47 µM | 0.15 µM | 0.28 µM | 195 to 197 °C
Cn1cc(C(=O)NCc2ccc(Cl)cc2)c(=O)c2cc(CN3CCOCC3)cc(C#Cc3ccncc3)c21 [Example 17, N-(4-chlorobenzyl)-1-methyl-6-(morpholin-4-ylmethyl)-4-oxo-8-(pyridin-4-ylethynyl)-1,4-dihydroquinoline-3-carboxamide] | 0.42 µM | 0.11 µM | 0.21 µM | 200 to 202 °C
Cn1cc(C(=O)NCc2ccc(Cl)cc2)c(=O)c2cc(CN3CCOCC3)cc(C#CCn3ccnc3)c21 [Example 23, N-(4-chlorobenzyl)-8-[3-(1 H-imidazol-1-yl)prop-1-ynyl]-1-methyl-6-(morpholin-4-ylmethyl)-4-oxo-1,4-dihydroquinoline-3-carboxamide] | 0.33 µM | 0.1 µM | 0.22 µM | 178 to 180 °C
